Laboratory results from patent publication US5616123A, “Delivery of solid drug compositions” (Delab, priority 1995, dated 1997).

Tests used:
[1] = cited from earlier work; for solubility: in words
[2] = plasma levels of BN 50730 after subcutaneous injection (FIGS. 13, 14); format: in vivo, rabbits
Procedure: These cylinders were injected subcutaneously into rabbits at a dosage of 2.0 mg/kg for a comparison study with BN 50730 mixed with propylene glycol. […] This 10 ng/ml is a sufficient concentration for a pharmacological effect.

CCCCNc1ccc(C(=O)OCCN(C)C)cc1 [tetracaine]
solubility [1]: soluble

bovine pancreas insulin [BPI]
water solubility [1]: water insoluble

COc1ccc(NC(=S)N2CCc3c(sc4c3C(c3ccccc3Cl)=NCc3nnc(C)n3-4)C2)cc1 [BN 50730, 4,7,8,10-tetrahydro-1-methyl-6-(2-chlorphenyl)-9-(4-methoxyphenyl-thiocarbamoyl)-pyrrido-[4',3'-4,5]thieno[3,2-f]-1,2,4-triazolo[4,3-a]1,4-diazepine]
sufficient concentration for a pharmacological effect ([2]; plasma concentration): 10 ng/ml
effect in plasma (onset) ([2]; solid formulation, subcutaneous, rabbits, 2.0 mg/kg): immediate effect in plasma
solubility [1]: insoluble

Recombinant human insulin [RHI]
water solubility [1]: water soluble
